The results in this text go back to patent US8835420B2, “Azaindole derivatives” (Takeda Pharmaceutical Company Limited, priority 2012, dated 2014).

Some results are limits rather than exact numbers.

The term IC50 denotes the concentration that gives 50% inhibition.

In this assay the target is T1, PI3Kδ (recombinant GST-tagged PIK3CD co-expressed with PIK3R1, p85α) (Homo sapiens, UniProt O00329).
T1 construct: The protein is full length and co-expressed with untagged PIK3R1; GST; purchased Invitrogen PV5274
T1 sequence (O00329 whole entry): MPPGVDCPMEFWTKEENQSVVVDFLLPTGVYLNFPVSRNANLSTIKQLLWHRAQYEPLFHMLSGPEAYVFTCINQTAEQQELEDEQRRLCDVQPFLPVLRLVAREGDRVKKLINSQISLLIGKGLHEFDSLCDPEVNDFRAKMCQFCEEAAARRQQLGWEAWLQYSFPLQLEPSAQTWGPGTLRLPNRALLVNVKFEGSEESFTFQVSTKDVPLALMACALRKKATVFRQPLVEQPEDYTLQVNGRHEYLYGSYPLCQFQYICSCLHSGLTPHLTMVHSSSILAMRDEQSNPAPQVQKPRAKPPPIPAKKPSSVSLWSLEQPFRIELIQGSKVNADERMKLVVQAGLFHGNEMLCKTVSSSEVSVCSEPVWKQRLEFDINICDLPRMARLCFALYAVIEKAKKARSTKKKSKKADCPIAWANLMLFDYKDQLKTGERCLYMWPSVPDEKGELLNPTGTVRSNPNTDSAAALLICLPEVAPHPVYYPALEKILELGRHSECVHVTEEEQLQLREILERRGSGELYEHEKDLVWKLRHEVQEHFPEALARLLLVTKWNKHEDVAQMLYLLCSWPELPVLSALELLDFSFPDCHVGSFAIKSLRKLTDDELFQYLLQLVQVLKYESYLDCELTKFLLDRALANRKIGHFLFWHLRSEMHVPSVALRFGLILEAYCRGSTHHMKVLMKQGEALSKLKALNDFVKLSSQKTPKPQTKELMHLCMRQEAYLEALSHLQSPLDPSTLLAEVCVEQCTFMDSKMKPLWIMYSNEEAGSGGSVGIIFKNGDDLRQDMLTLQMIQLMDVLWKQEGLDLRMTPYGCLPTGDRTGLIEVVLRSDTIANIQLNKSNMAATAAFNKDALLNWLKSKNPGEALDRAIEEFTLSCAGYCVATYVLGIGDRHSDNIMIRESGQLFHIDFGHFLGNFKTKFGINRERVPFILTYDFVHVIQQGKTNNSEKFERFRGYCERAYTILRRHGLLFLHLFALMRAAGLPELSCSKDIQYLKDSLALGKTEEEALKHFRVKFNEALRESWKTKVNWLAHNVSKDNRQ
T1 sequence (P27986 whole entry partner): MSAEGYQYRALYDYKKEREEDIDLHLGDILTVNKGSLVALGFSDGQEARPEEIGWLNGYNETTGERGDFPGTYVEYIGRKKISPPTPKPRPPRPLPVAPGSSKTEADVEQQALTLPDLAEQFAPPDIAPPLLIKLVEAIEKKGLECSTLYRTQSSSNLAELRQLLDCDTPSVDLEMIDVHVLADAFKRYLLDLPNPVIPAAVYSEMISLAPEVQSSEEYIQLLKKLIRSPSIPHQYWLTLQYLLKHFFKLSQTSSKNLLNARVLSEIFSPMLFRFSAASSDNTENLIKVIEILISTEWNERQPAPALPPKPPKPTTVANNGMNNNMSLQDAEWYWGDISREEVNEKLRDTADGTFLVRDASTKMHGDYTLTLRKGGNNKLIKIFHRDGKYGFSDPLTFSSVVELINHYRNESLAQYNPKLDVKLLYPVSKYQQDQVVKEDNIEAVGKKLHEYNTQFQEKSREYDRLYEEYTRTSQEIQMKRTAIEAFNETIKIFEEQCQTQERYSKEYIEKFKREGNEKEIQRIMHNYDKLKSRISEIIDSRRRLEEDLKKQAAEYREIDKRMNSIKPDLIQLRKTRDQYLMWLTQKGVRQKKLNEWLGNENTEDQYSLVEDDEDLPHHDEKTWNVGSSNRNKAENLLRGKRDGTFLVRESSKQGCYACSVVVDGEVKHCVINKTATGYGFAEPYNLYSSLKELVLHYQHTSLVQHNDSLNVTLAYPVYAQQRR
In words: PI3Kδ inhibition, modified PIK3CD Adapta TR-FRET kinase assay. In kind it is biochemical. The following applies: 2 μM ATP, 50 μM PIP2, 1 hour at room temperature, pIC50 = -log(IC50 in M). On the procedure: The activity of compounds as PI3Kδ inhibitors may be determined by a variety of methods, including in vitro and in vivo methods. The following in vitro assay measures a test compound's ability to inhibit PI3Kδ-mediated phosphorylation of PIP2 and ATP.
Recombinant GST-tagged PIK3CD is purchased from Invitrogen (Part Number: PV5274). The protein is full length and co-expressed with untagged PIK3R1, phosphoinositide-3-kinase regulatory subunit 1 (p85α). The protein is stored at −20° C. in 50 mM TRIS (pH 7.5), 150 mM NaCl, 0.5 mM EDTA, 0.02% Triton® X-100, 2 mM DTT, and 50% glycerol.
A modified PIK3CD Adapta® assay (Invitrogen, Carlsbad, Calif.) is used to measure PI3Kδ inhibition of the example compounds. The assay has two phases. In the first phase, kinase reaction components, which include the enzyme (PIK3CD), substrates (PIP2, ATP), test compound (inhibitor), and assay buffer are added to each well, and the reaction is allowed to incubate for a pre-determined period of time. After reaction, a detection solution composed of a Eu (europium)-labeled anti-ADP antibody, Alexa Fluor® 647-labeled ADP tracer, and EDTA (to stop the kinase reaction) is added to each assay well. In this second phase, ADP formed by the kinase reaction displaces the Alexa Fluor® 647-labeled ADP tracer from the antibody, resulting in a decrease in time-resolved fluorescence resonance energy transfer (TR-FRET) signal. In the presence of the inhibitor, the amount of ADP formed by the kinase reaction is reduced, and the resulting intact antibody-tracer interaction maintains a high TR-FRET signal.
The assay uses black Greiner® 384-well plates (784076). The reaction buffer contains 50 mM Hepes (pH 7.5), 3 mM MgCl2, 1 mM EGTA, 100 mM NaCl, 0.03% CHAPS; 2 mM DTT is added fresh prior to each experiment. Enzyme (4 μL, estimated 1.5 nM in buffer) is first added to the wells of the plate. Next, test compounds (2 μL) from a source plate (5% dilution plate) are introduced into the wells. The final DMSO concentration in each assay well is 1%. The dilution plate contains 5% DMSO in the bottom half of columns 23 and 24, which serve as negative (non-inhibited) controls; the top half contains a known inhibitor concentration (positive control) that gives >98% inhibition of the kinase reaction. Other wells contain test compounds serially diluted across the plate 11 times for a total of 12 data points. The kinase reactions are carried out at room temperature and are initiated by the addition of 4 μL of solution containing 2 μM ATP and 50 μM PIP2. Each reaction is stopped after 1 hour±10 minutes via addition of 10 μL stop solution, which contains a final assay concentration of 3 nM Alexa Fluor® 647-labeled ADP tracer, 2 nM Eu-anti-ADP Antibody, and 10 mM EDTA. After allowing the solutions to equilibrate for 30±10 minutes, a PHERAstar plate reader is used to excite the Eu donor (at 337 nm) and to detect emission from the Alexa Fluor® 647 at 665 nm. This emission signal is referenced or “ratioed” to the emission from Eu at 620 nm. The emission ratio (665 nm/620 nm) from each well is collected and converted to percent conversion using a standard curve for the assay conditions: % conversion=B*(C+A−emission ratio)/(emission ratio−C), where “A” and “C” are the maximum and minimum values of the emission ratio obtained from the standard curve of emission ratio vs. % conversion (ATP-ADP); “B” is the emission ratio corresponding to the % conversion at the EC50 value for the ADP Tracer—Eu anti-ADP antibody complex. The percent inhibition for a given inhibitor concentration is computed from % conversion for the reaction and for the positive and negative controls. Corresponding IC50 values are calculated by non-linear curve fitting of the compound concentrations and values of percent inhibition to the standard IC50 equation and are reported as pIC50, i.e., −log(IC50), where IC50 is molar concentration at 50% inhibition.
A general note: In TR-FRET formats the signal depends on donor and acceptor labels being close together.
Consider `C[C@H](Nc1nc(N)nc(N)c1C#N)c1nc2ccn(C)c2cc1-c1ccnc(O)c1` [Example 15, (S)-2,4-Diamino-6-((1-(6-(2-hydroxypyridin-4-yl)-1-methyl-1H-pyrrolo[3,2-b]pyridin-5-yl)ethyl)amino)pyrimidine-5-carbonitrile], for which the 50% inhibitory concentration (IC50) was below 1 nM.

As for `CC(Nc1nc(N)nc(N)c1Cl)c1nc2ccn(C)c2cc1N1CC(F)(F)C1` (centres unmarked) [Example 38, 5-Chloro-N^4-(1-(6-(3,3-difluoroazetidin-1-yl)-1-methyl-1H-pyrrolo[3,2-b]pyridin-5-yl)ethyl)pyrimidine-2,4,6-triamine], the 50% inhibitory concentration (IC50) was 158 nM.

Take `C[C@@H](Nc1nc(N)nc(N)c1C#N)c1nc2ccn(C)c2cc1N1CC2(COC2)C1` [Example 46, (R)-2,4-Diamino-6-((1-(1-methyl-6-(2-oxa-6-azaspiro[3.3]heptan-6-yl)-1H-pyrrolo[3,2-b]pyridin-5-yl)ethyl)amino)pyrimidine-5-carbonitrile]: the 50% inhibitory concentration (IC50) was 200 nM.

Take `C[C@H](Nc1nc(N)nc(N)c1C#N)c1nc2ccn(C)c2cc1N1CCOCC1` [Example 10, (S)-2,4-Diamino-6-((1-(1-methyl-6-morpholino-1H-pyrrolo[3,2-b]pyridin-5-yl)ethyl)amino)pyrimidine-5-carbonitrile]: the IC50 is below 2.51 nM.

As to `C[C@H](Nc1nc(O)nc(N)c1C#N)c1nc2ccn(C)c2cc1N1CCOCC1` [Example 8, (S)-4-Amino-2-hydroxy-6-((1-(1-methyl-6-morpholino-1H-pyrrolo[3,2-b]pyridin-5-yl)ethyl)amino)pyrimidine-5-carbonitrile], the IC50 is 1000 nM.

Consider `Cc1nc(N)c(C#N)c(NC(C)c2nc3ccn(C)c3cc2N2CCOCC2)n1` (centres unmarked) [Example 6, 4-Amino-2-methyl-6-((1-(1-methyl-6-morpholino-1H-pyrrolo[3,2-b]pyridin-5-yl)ethyl)amino)pyrimidine-5-carbonitrile], for which the 50% inhibitory concentration (IC50) was 63.1 nM.

With `C[C@H](Nc1nc(N)nc2[nH]cnc12)c1nc2ccn(C)c2cc1-c1ccnn1C(F)F` [Example 37, (S)-N^6-(1-(6-(1-(Difluoromethyl)-1H-pyrazol-5-yl)-1-methyl-1H-pyrrolo[3,2-b]pyridin-5-yl)ethyl)-9H-purine-2,6-diamine], the half-inhibitory concentration (IC50) is 10 nM.

In the case of `C[C@H](Nc1nc(N)nc(N)c1Cl)c1nc2ccn(C)c2cc1N1CCOCC1` [Example 28, (S)-5-Chloro-N^4-(1-(1-methyl-6-morpholino-1H-pyrrolo[3,2-b]pyridin-5-yl)ethyl)pyrimidine-2,4,6-triamine], the IC50 was 126 nM.

Take `C[C@H](Nc1nc(N)nc2[nH]cnc12)c1nc2ccn(C)c2cc1-c1ccccn1` [Example 34, (S)—N^6-(1-(1-Methyl-6-(pyridin-2-yl)-1H-pyrrolo[3,2-b]pyridin-5-yl)ethyl)-9H-purine-2,6-diamine]: the IC50 is 5.01 nM.

As for `C[C@H](Nc1nc(N)ncc1Cl)c1nc2ccn(C)c2cc1N1CCOCC1` [Example 5, (S)-5-Chloro-N^4-(1-(1-methyl-6-morpholino-1H-pyrrolo[3,2-b]pyridin-5-yl)ethyl)pyrimidine-2,4-diamine], the IC50 was 126 nM.

Consider `C[C@H](Nc1nc(O)nc(N)c1C#N)c1nc2ccn(C)c2cc1-c1ccnn1C` [Example 11, (S)-4-Amino-2-hydroxy-6-((1-(1-methyl-6-(1-methyl-1H-pyrazol-5-yl)-1H-pyrrolo[3,2-b]pyridin-5-yl)ethyl)amino)pyrimidine-5-carbonitrile], for which the IC50 was 1260 nM.

For the molecule `Cc1nc(N)nc(N[C@@H](C)c2nc3ccn(C)c3cc2-c2ccccn2)c1C#N` [Example 24, (S)-2-Amino-4-methyl-6-((1-(1-methyl-6-(pyridin-2-yl)-1H-pyrrolo[3,2-b]pyridin-5-yl)ethyl)amino)pyrimidine-5-carbonitrile], the IC50 is below 1 nM.

For `Cc1nc(N)nc(N[C@@H](C)c2nc3ccn(C)c3cc2-c2ccnn2C)c1C#N` [Example 3, (S)-2-Amino-4-methyl-6-((1-(1-methyl-6-(1-methyl-1H-pyrazol-5-yl)-1H-pyrrolo[3,2-b]pyridin-5-yl)ethyl)amino)pyrimidine-5-carbonitrile], the IC50 is 1.58 nM.

With `C[C@H](Nc1nc(N)nc(N)c1C#N)c1nc2ccn(C)c2cc1-c1cscn1` [Example 17, (S)-2,4-Diamino-6-((1-(1-methyl-6-(thiazol-4-yl)-1H-pyrrolo[3,2-b]pyridin-5-yl)ethyl)amino)pyrimidine-5-carbonitrile], the IC50 was below 1 nM.

With `C[C@H](Nc1nc(N)nc(N)c1C#N)c1nc2ccn(C)c2cc1-c1ccnn1C1CC1` [Example 35, (S)-2,4-Diamino-6-((1-(6-(1-cyclopropyl-1H-pyrazol-5-yl)-1-methyl-1H-pyrrolo[3,2-b]pyridin-5-yl)ethyl)amino)pyrimidine-5-carbonitrile], the half-inhibitory concentration (IC50) is 2.51 nM.

Regarding `Cc1noc(C)c1-c1cc2c(ccn2C)nc1[C@H](C)Nc1nc(N)nc(N)c1C#N` [Example 30, 2,4-Diamino-6-(((1S)-1-(6-(3,5-dimethylisoxazol-4-yl)-1-methyl-1H-pyrrolo[3,2-b]pyridin-5-yl)ethyl)amino)pyrimidine-5-carbonitrile], the IC50 is below 1 nM.

`C[C@H](Nc1nc(N)nc(N)c1C#N)c1nc2c(O)cn(C)c2cc1N1CCOCC1` [Example 49, (S)-2,4-Diamino-6-((1-(3-hydroxy-1-methyl-6-morpholino-1H-pyrrolo[3,2-b]pyridin-5-yl)ethyl)amino)pyrimidine-5-carbonitrile]: the concentration for half-maximal inhibition (IC50) is 251 nM.

Take `C[C@@H](Nc1nc(N)nc(N)c1C#N)c1nc2ccn(C)c2cc1N1CCOCC1` [Example 48, (R)-2,4-Diamino-6-((1-(1-methyl-6-morpholino-1H-pyrrolo[3,2-b]pyridin-5-yl)ethyl)amino)pyrimidine-5-carbonitrile]: the IC50 was 79.4 nM.

Turning to `C[C@H](Nc1nc(N)nc(N)c1C#N)c1nc2ccn(C)c2cc1-c1ccnn1C` [Example 2, (S)-2,4-Diamino-6-((1-(1-methyl-6-(1-methyl-1H-pyrazol-5-yl)-1H-pyrrolo[3,2-b]pyridin-5-yl)ethyl)amino)pyrimidine-5-carbonitrile], the IC50 is 2.51 nM.

For the molecule `C[C@H](Nc1nc(N)ncc1C#N)c1nc2ccn(C)c2cc1-c1ccnn1C` [Example 4, (S)-2-Amino-4-((1-(1-methyl-6-(1-methyl-1H-pyrazol-5-yl)-1H-pyrrolo[3,2-b]pyridin-5-yl)ethyl)amino)pyrimidine-5-carbonitrile], the 50% inhibitory concentration (IC50) is 63.1 nM.

As to `C[C@H](Nc1nc(N)nc(N)c1C#N)c1nc2ccn(C)c2cc1-c1ccnn1C(F)F` [Example 32, (S)-2,4-Diamino-6-((1-(6-(1-(difluoromethyl)-1H-pyrazol-5-yl)-1-methyl-1H-pyrrolo[3,2-b]pyridin-5-yl)ethyl)amino)pyrimidine-5-carbonitrile], the IC50 is 1.58 nM.

In the case of `C[C@H](Nc1nc(N)nc(N)c1C#N)c1nc2ccn(C)c2cc1-c1ccccn1` [Example 12, (S)-2,4-Diamino-6-((1-(1-methyl-6-(pyridin-2-yl)-1H-pyrrolo[3,2-b]pyridin-5-yl)ethyl)amino)pyrimidine-5-carbonitrile], the IC50 was 1.58 nM.

As to `C[C@H](Nc1nc(N)nc(N)c1C#N)c1nc2ccn(C)c2cc1N1CCOCC1` [Example 29, (S)-2,4-Diamino-6-((1-(1-methyl-6-morpholino-1H-pyrrolo[3,2-b]pyridin-5-yl)ethyl)amino)pyrimidine-5-carbonitrile], the half-inhibitory concentration (IC50) was below 1.26 nM.
